Test results reported in patent US6468782B1, “Methods of preserving prokaryotic cells and compositions obtained thereby” (priority 1996, dated 2002).
Like-named read-outs stand apart in the source and are kept apart here.

How the values were obtained:
E. coli = test: Intracellular trehalose production in E. coli under osmotic shock with different salts; assay type: cell-based
Experimental: E. coli NCIMB strain 9484 was cultured in Evans medium (pH 7.0; Table 1) containing one of a variety of agents for increasing osmotic pressure. After overnight incubation at 37° C. in initial Evans medium, a 4 ml culture of E. coli grown in Evans medium under nitrogen limitation was used to inoculate a 200 ml culture of Evans medium osmotic shock.
Intracellular trehalose concentration was measured as described below at various times after the initiation of osmotic shock.
Intracellular concentration of trehalose was determined using high pressure liquid chromatography (HPLC) as follows. Trehalose standards were prepared by first making 10 mM trehalose in 70% ethanol, followed by 10-fold serial dilution from 10 mM to 10 nM using 70% ethanol as diluent. […]
Cell samples were prepared for analysis by disrupting the cell wall by sonication (any other method such as mortar and pestle, osmotic lysis, beads can be used) coupled with the preferential solubilization of trehalose in 70% ethanol, followed by removing triglycerides by chloroform extraction. […] The pellet volume was determined by measuring the relative increase in the initial volume following resuspension of the cells. […]
Quantitation of trehalose was achieved by HPLC (Beckman Instruments), using a Dionex CarboPac PA 100 analytical column, with a Dionex ED40 pulsed amperometric electrochemical detector. […]

E. coli 9484 = test: Viable cell recovery (plate assay, CFU) of trehalose-induced E. coli Q-T4 dried with different excipients and stored at 37° C.; assay type: cell-based
Experimental: Viability was determined immediately after completion and at various times during storage at 37° C. using a plate assay. For the plate assay, serial 10-fold dilutions of cells were set up by using minimal medium minus a carbon source as a sterile diluent.
Thirty μl of the cell suspension from the sixth dilution tube was added to each of 3 LB (Luria-Bertuni) plates, using a sterile glass spreader to spread the culture over the entire surface of the plate. The plates were incubated overnight at 37° C., and the colonies counted.
E. coli strain 9894 was inoculated in 100 ml batch cultures of minimal medium related to M9 but with high (0.5M) salt content as described in Example 2. Cells were grown for 22 hours at 37° C. in a shaking incubator (early stationary phase). Samples of cultures were removed for trehalose determination (3×1 ml) and protein estimation by the Bradford assay (3×10 ml; Bio-Rad). Trehalose concentration was expressed as μmol (mg protein)^−1.
Two 30 ml aliquots from each flask were harvested by centrifugation at 10,000 rpm for 10 minutes. Cell pellets were resuspended in 8 ml of 25-45% sugar, 0.1% CMC (sodium carboxymethyl cellulose; Blanose 7HF; Aqualon). The suspensions were then pooled to a total volume of 16 ml with a typical cell density of 4-8×10^9 CFU/ml and 300 μl aliquots dispensed into 3 ml pharmaceutical vials.
Bacteria were dried under vacuum without freezing using the following protocol: vacuum, 30 mT; initial shelf temperature 40° C. for 16 hours, followed by ramping to 80° C. at a rate of 2.5° C./min in increments of 2° C. with a holding time of 12 minutes per increment. Foaming occurred between 60-120 minutes of initial drying.
Viability was determined immediately before and after the completion of the drying procedure and at various times during storage at 37° C. using a plate assay as described in Example 2. The residual moisture content and the glass transition temperature were also determined.

N.N.O=S(=O)(O)O [ammonium sulfate]
amount of intracellular trehalose concentration stimulated, relative to NaCl, CaCl2 or KCl (E. coli): about half

Palatinit
% Viable Cell Recovery after storage at 37° C., Day 0 (E. coli 9484): 49%
% Viable Cell Recovery after storage at 37° C., Week 3 (E. coli 9484): 49%
% Viable Cell Recovery after storage at 37° C., Week 6 (E. coli 9484): 51%

OC[C@H]1O[C@H](O[C@H]2O[C@H](CO)[C@@H](O)[C@H](O)[C@H]2O)[C@H](O)[C@@H](O)[C@@H]1O [Trehalose, α-D-glucopyranosyl-α-D-glucopyranoside]
% Viable Cell Recovery after storage at 37° C., Week 3 (E. coli 9484; 3 weeks storage at 37° C., 25-45% sugar, 0.1% CMC): 52%
% Viable Cell Recovery after storage at 37° C., Week 6 (E. coli 9484; 6 weeks storage at 37° C., 25-45% sugar, 0.1% CMC): 45%
% Viable Cell Recovery after storage at 37° C., Day 0 (E. coli 9484; immediately after completion of Q-T4 drying, 25-45% sugar, 0.1% CMC): 36%

OC[C@@H](O)[C@@H](O[C@@H]1O[C@H](CO)[C@H](O)[C@H](O)[C@H]1O)[C@H](O)[C@@H](O)CO [Lactitol, 4-O-β-D-galactopyranosyl-D-glucitol]
% Viable Cell Recovery after storage at 37° C., Day 0 (E. coli 9484; E. coli, 0 day): 42%
% Viable Cell Recovery after storage at 37° C., Week 3 (E. coli 9484; E. coli, 3 weeks): 36%
% Viable Cell Recovery after storage at 37° C., Week 6 (E. coli 9484; E. coli, 6 weeks): 34%
